Data: patent US20060293307A1, “Oxazolidinone derivatives as antimicrobials” (priority 2002, published 2006)
Values after ≈ are worked out from the molar mass of the structure shown. Like-named read-outs stand apart in the source and are kept apart here.

How the values were obtained:
Assay in all cases: MIC, agar incorporation method
S. aureus ATCC29213 = type: cell-based, Staphylococcus aureus
S. aureus SG 511 = type: cell-based, Staphylococcus aureus
S. aureus (MRSA) ST450 = type: cell-based, Staphylococcus aureus
(MRSA) 562 = type: cell-based, Staphylococcus aureus
S. aureus (Smith 49951) = type: cell-based, Staphylococcus aureus
[1] = system: S. epidermidis (MRSE)32965; type: cell-based, Staphylococcus epidermidis
S. epidermidis 358 = type: cell-based, Staphylococcus epidermidis
S. haemo ATCC 29970 = type: cell-based
E. faecalis 29212 = type: cell-based
E. faecalis 21777 = type: cell-based
E. faecalis SP 346 (VRE) = type: cell-based
E. faecium 398(VRE) = type: cell-based, Enterococcus faecium
Salmonella 205 = type: cell-based; details: S. No. 26, Salmonella 205
Procedure: The compounds of the invention display antibacterial activity when tested by the agar incorporation method. The following minimum inhibitory concentrations (μg/ml) were obtained for representative compounds of the invention which are given below in the following tables.
Briefly, the compounds were dissolved in DMSO and doubling dilution of the compounds were incorporated into Meer Hilton agar before solidification. Inoculum was prepared by suspending 4 to 5 colonies into 5 ml of normal saline solution and adjusting the turbidity to 0.5 Macfarland turbidity standard tables (1.5×10^8 CFU/ml), after appropriate dilutions, 10^4 CFU/spot was transfered into the surface of dried plate and incubated for 18 hours (24 hours for MRSN studies). The concentration showing no growth of the inoculated culture was recorded as the MIC. Appropriate ATCC standard strains were simultaneously tested and result recorded only when the MIC's against standard antibiotics were within the acceptable range.

P. aeruginosa ATCC 27853 = type: cell-based
[2] = system: Serratia marcescens 12999; type: cell-based
S. pneumoniae AB-2 = type: cell-based, Streptococcus pneumoniae
S. pneumoniae AB-3 = type: cell-based, Streptococcus pneumoniae
S. pneumoniae CS1221 = type: cell-based, Streptococcus pneumoniae
S. pneumoniae AB 17 = type: cell-based, Streptococcus pneumoniae
S. pneumoniae AB 22 = type: cell-based, Streptococcus pneumoniae
S. pneumoniae CS 1687 = type: cell-based, Streptococcus pneumoniae
S. pneumoniae AB 25 = type: cell-based, Streptococcus pneumoniae
S. pneumoniae AB 29 = type: cell-based, Streptococcus pneumoniae
S. pneumoniae AB 30 = type: cell-based, Streptococcus pneumoniae
S. pneumoniae ATCC 49619 = type: cell-based, Streptococcus pneumoniae
S. pneumoniae AB 34 = type: cell-based, Streptococcus pneumoniae
S. pyogenes 19615 = type: cell-based, Streptococcus pyogenes
S. pyogenes 25147 = type: cell-based, Streptococcus pyogenes
S pneumoniae 1294. = type: cell-based, Streptococcus pneumoniae
S. pneumoniae 1256 = type: cell-based, Streptococcus pneumoniae
S. pneumoniae 1275 = type: cell-based, Streptococcus pneumoniae

Q: Which results are given for `CC(=O)NC[C@H]1CN(c2ccc(N3CCN(c4ccc([N+](=O)[O-])s4)CC3)cc2)C(=O)O1` [Compound No. 6, (S)—N-[[3-[4-[N-1-(5-nitro-2-thienyl)piperazinyl]-phenyl]-2-oxo-5-oxazolidinyl]-methyl]-acetamide]?
A: MIC (S. aureus ATCC29213; S. No. 2, S. aureus ATCC29213): 2 µg/mL (≈ 4.49 µM); MIC (S. aureus SG 511; S. No. 3, S. aureus SG 511): 2 µg/mL (≈ 4.49 µM); MIC (S. aureus (MRSA) ST450; S. No. 6, S. aureus (MRSA) ST450): 2 µg/mL (≈ 4.49 µM); MIC ((MRSA) 562; S. No. 8, (MRSA) 562): 1 µg/mL (≈ 2.24 µM); MIC (S. aureus (Smith 49951); S. No. 9, S. aureus (Smith 49951)): 1 µg/mL (≈ 2.24 µM); MIC ([1]; S. No. 13, S. epidermidis (MRSE)32965): 1 µg/mL (≈ 2.24 µM); MIC (S. epidermidis 358; S. No. 14, S. epidermidis 358): 1 µg/mL (≈ 2.24 µM); MIC (S. haemo ATCC 29970; S. No. 15, S. haemo ATCC 29970): 1 µg/mL (≈ 2.24 µM); MIC (E. faecalis 29212; S. No. 17, E. faecalis 29212): 1 µg/mL (≈ 2.24 µM); MIC (E. faecalis 21777; S. No. 18, E. faecalis 21777): 1 µg/mL (≈ 2.24 µM); MIC (E. faecalis SP 346 (VRE); S. No. 20, E. faecalis SP 346 (VRE)): 1 µg/mL (≈ 2.24 µM); MIC (E. faecium 398(VRE); S. No. 22, E. faecium 398(VRE)): 1 µg/mL (≈ 2.24 µM); MIC (Salmonella 205): >16 µg/mL; MIC (P. aeruginosa ATCC 27853; S. No. 28, P. aeruginosa ATCC 27853): >16 µg/mL; MIC ([2]; S. No. 29, Serratia marcescens 12999): >16 µg/mL; MIC (S. pneumoniae AB-2; S. No. 31, S. pneumoniae AB-2): 0.25 µg/mL (≈ 0.561 µM); MIC (S. pneumoniae AB-3; S. No. 32, S. pneumoniae AB-3): 0.25 µg/mL (≈ 0.561 µM); MIC (S. pneumoniae CS1221; S. No. 34, S. pneumoniae CS1221): 0.25 µg/mL (≈ 0.561 µM); MIC (S. pneumoniae AB 17; S. No. 40, S. pneumoniae AB 17): 0.25 µg/mL (≈ 0.561 µM); MIC (S. pneumoniae AB 22; S. No. 42, S. pneumoniae AB 22): 0.25 µg/mL (≈ 0.561 µM); MIC (S. pneumoniae CS 1687; S. No. 44, S. pneumoniae CS 1687): 0.5 µg/mL (≈ 1.12 µM); MIC (S. pneumoniae AB 25; S. No. 45, S. pneumoniae AB 25): 0.5 µg/mL (≈ 1.12 µM); MIC (S. pneumoniae AB 29; S. No. 46, S. pneumoniae AB 29): 0.5 µg/mL (≈ 1.12 µM); MIC (S. pneumoniae AB 30; S. No. 47, S. pneumoniae AB 30): 0.5 µg/mL (≈ 1.12 µM); MIC (S. pneumoniae ATCC 49619; S. No. 48, S. pneumoniae ATCC 49619): 0.5 µg/mL (≈ 1.12 µM); MIC (S. pneumoniae AB 34; S. No. 49, S. pneumoniae AB 34): 0.5 µg/mL (≈ 1.12 µM); MIC (S. pyogenes 19615; S. No. 51, S. pyogenes 19615): 0.5 µg/mL (≈ 1.12 µM); MIC (S. pyogenes 25147; S. No. 52, S. pyogenes 25147): 0.5 µg/mL (≈ 1.12 µM); MIC (S pneumoniae 1294.; S. No. 55, S pneumoniae 1294.): 0.5 µg/mL (≈ 1.12 µM); MIC (S. pneumoniae 1256; S. No. 56, S. pneumoniae 1256): 0.25 µg/mL (≈ 0.561 µM); MIC (S. pneumoniae 1275; S. No. 57, S. pneumoniae 1275): 0.25 µg/mL (≈ 0.561 µM)

Q: Which MIC (S. aureus ATCC29213; Staphylococcus aureus, ATCC29213) does the source give for `CN[C@H](CC(C)C)C(=O)N[C@H]1C(=O)N[C@@H](CC(N)=O)C(=O)N[C@H]2C(=O)N[C@H]3C(=O)N[C@H](C(=O)N[C@H](C(=O)O)c4cc(O)cc(O)c4-c4cc3ccc4O)[C@H](O)c3ccc(c(Cl)c3)Oc3cc2cc(c3O[C@@H]2O[C@H](CO)[C@@H](O)[C@H](O)[C@H]2O[C@H]2C[C@](C)(N)[C@H](O)[C@H](C)O2)Oc2ccc(cc2Cl)[C@H]1O` [Vancomycin, reference compound] here?
A: The MIC was 0.5 µg/mL (≈ 0.345 µM).

Q: What about the MIC (S. aureus SG 511; Staphylococcus aureus, SG511) of the same compound?
A: Its MIC is 0.5 µg/mL (≈ 0.345 µM).

Q: What about the MIC (S. aureus (MRSA) ST450; Staphylococcus aureus, MRSA) of the same compound?
A: The MIC was 0.5 µg/mL (≈ 0.345 µM).

Q: And the MIC ((MRSA) 562; Staphylococcus aureus, MRSA)?
A: Its MIC is 1 µg/mL (≈ 0.69 µM).

Q: And the MIC (S. aureus (Smith 49951); Staphylococcus aureus)?
A: Its MIC is 1 µg/mL (≈ 0.69 µM).

Q: And the MIC ([1]; Staphylococcus epidermidis, MRSE)?
A: Its MIC is 2 µg/mL (≈ 1.38 µM).

Q: And the MIC (S. epidermidis 358; Staphylococcus epidermidis, 358)?
A: The MIC was 2 µg/mL (≈ 1.38 µM).

Q: And the MIC (S. haemo ATCC 29970)?
A: Its MIC is 1 µg/mL (≈ 0.69 µM).

Q: And the MIC (E. faecalis 29212; Enterococcus faecalis, 29212)?
A: The MIC was 4 µg/mL (≈ 2.76 µM).

Q: And the MIC (E. faecalis 21777; Enterococcus faecalis, 21777)?
A: Its MIC is 2 µg/mL (≈ 1.38 µM).

Q: And the MIC (E. faecalis SP 346 (VRE); Enterococcus faecalis, VRE)?
A: Its MIC is > 16 µg/mL.

Q: And the MIC (E. faecium 398(VRE); Enterococcus faecium, VRE)?
A: Its MIC is > 16 µg/mL.

Q: What about the MIC (Salmonella 205; read-out: MIC) of the same compound?
A: The MIC was > 16 µg/mL.

Q: And the MIC (P. aeruginosa ATCC 27853; Pseudomonas aeruginosa, ATCC27853)?
A: Its MIC is > 16 µg/mL.

Q: And the MIC ([2]; Serratia marcescens, 12999)?
A: The MIC was > 16 µg/mL.

Q: And the MIC (S. pneumoniae AB-2; Streptococcus pneumoniae, AB2)?
A: The MIC was 0.5 µg/mL (≈ 0.345 µM).

Q: What about the MIC (S. pneumoniae AB-3; Streptococcus pneumoniae, AB3) of the same compound?
A: Its MIC is 0.5 µg/mL (≈ 0.345 µM).

Q: And the MIC (S. pneumoniae CS1221; Streptococcus pneumoniae, CS1221)?
A: Its MIC is 0.25 µg/mL (≈ 0.173 µM).

Q: And the MIC (S. pneumoniae AB 17; Streptococcus pneumoniae, AB17)?
A: Its MIC is 0.25 µg/mL (≈ 0.173 µM).

Q: What about the MIC (S. pneumoniae AB 22; Streptococcus pneumoniae, AB22) of the same compound?
A: Its MIC is 0.25 µg/mL (≈ 0.173 µM).

Q: And the MIC (S. pneumoniae CS 1687; Streptococcus pneumoniae, CS1687)?
A: The MIC was 0.25 µg/mL (≈ 0.173 µM).

Q: What about the MIC (S. pneumoniae AB 25; Streptococcus pneumoniae, AB25) of the same compound?
A: Its MIC is 0.25 µg/mL (≈ 0.173 µM).

Q: And the MIC (S. pneumoniae AB 29; Streptococcus pneumoniae, AB29)?
A: Its MIC is 0.25 µg/mL (≈ 0.173 µM).

Q: And the MIC (S. pneumoniae AB 30; Streptococcus pneumoniae, AB30)?
A: Its MIC is 0.25 µg/mL (≈ 0.173 µM).

Q: And the MIC (S. pneumoniae ATCC 49619; Streptococcus pneumoniae, ATCC49619)?
A: Its MIC is 0.25 µg/mL (≈ 0.173 µM).

Q: What about the MIC (S. pneumoniae AB 34; Streptococcus pneumoniae, AB34) of the same compound?
A: Its MIC is 0.25 µg/mL (≈ 0.173 µM).

Q: What about the MIC (S. pyogenes 19615; Streptococcus pyogenes, 19615) of the same compound?
A: Its MIC is 0.5 µg/mL (≈ 0.345 µM).

Q: What about the MIC (S. pyogenes 25147; Streptococcus pyogenes, 25147) of the same compound?
A: Its MIC is 0.5 µg/mL (≈ 0.345 µM).

Q: And the MIC (S pneumoniae 1294.; Streptococcus pneumoniae, 1294.)?
A: Its MIC is 0.5 µg/mL (≈ 0.345 µM).

Q: And the MIC (S. pneumoniae 1256; Streptococcus pneumoniae, 1256)?
A: The MIC was 0.5 µg/mL (≈ 0.345 µM).

Q: What about the MIC (S. pneumoniae 1275; Streptococcus pneumoniae, 1275) of the same compound?
A: Its MIC is 0.5 µg/mL (≈ 0.345 µM).
